Active and inactive are the calls of the source.
Tests used:
Aspartyl aminopeptidase = Aspartyl aminopeptidase (Plasmodium falciparum 3D7, UniProt Q8I2J3); assay: Counterscreen for inhibitors of M1 and M17 aminopeptidases: QFRET-based biochemical high throughput dose response assay for inhibitors of the Plasmodium falciparum M18 Aspartyl Aminopeptidase (PFM18AAP). [Related PubChem assays: 1619 (Screening assay (M17LAP inhibitors).), 1445 (Screening assay (M1AAP inhibitors).)]
Leucine aminopeptidase = target: T1, Leucine aminopeptidase (Plasmodium falciparum 3D7, UniProt Q8IL11); assay: P. falciparum M17LAP inhibitors, primary screen, biochemical, fluorogenic H-Leu-NHMec substrate, 1536-well (AID 1619); format: functional
T1 sequence (Q8IL11 whole entry): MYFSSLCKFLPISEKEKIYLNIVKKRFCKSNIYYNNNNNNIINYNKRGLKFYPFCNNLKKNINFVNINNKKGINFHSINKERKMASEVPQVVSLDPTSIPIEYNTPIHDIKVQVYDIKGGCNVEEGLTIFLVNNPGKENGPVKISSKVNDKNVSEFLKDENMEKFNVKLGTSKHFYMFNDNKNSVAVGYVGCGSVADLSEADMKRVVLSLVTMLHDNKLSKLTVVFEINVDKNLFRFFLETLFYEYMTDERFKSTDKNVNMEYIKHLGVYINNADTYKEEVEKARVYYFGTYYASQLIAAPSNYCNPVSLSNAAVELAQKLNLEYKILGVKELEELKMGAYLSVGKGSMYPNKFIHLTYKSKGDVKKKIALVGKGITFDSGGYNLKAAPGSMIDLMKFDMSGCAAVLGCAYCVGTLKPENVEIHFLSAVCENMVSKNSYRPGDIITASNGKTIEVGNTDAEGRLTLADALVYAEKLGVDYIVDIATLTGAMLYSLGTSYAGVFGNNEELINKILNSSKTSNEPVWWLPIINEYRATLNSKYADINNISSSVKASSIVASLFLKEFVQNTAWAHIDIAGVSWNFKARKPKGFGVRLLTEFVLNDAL

Procathepsin L = Procathepsin L (Homo sapiens, UniProt P07711); assay: CTSL1 protease inhibition – biochemical, QFRET, 1536-well, counter-screen for M1/M17 aminopeptidase inhibitor project, dose response (AID 2214)
Escherichia coli = assay: microbe, parasite or virus in culture
HEK293 [1] = assay: HEK293T cell viability loss, resazurin readout – resazurin fluorescence, cytotoxicity control for NF-kB activator project, SAR follow-up (AID 493251); format: functional, cell-based; conditions: Homo sapiens
HEK293 [2] = assay: SAR Analysis of small molecule inhibitors of T-cell specific antigen receptor-induced NF-kB activation in a HEK-293T cell line using a luminescence assay - Set 2. [Related pubchem assays (depositor defined):AID435003, AID435012, AID489026]; format: functional, cell-based; conditions: Homo sapiens
Jurkat = assay: SAR Analysis of small molecule inhibitors of T-cell specific antigen receptor-induced NF-kB activation in a Jurkat cell line using a luminescence assay - Set 2. [Related pubchem assays (depositor defined):AID435003, AID435012, AID465]; format: functional, cell-based; conditions: Homo sapiens
[3] = microbe, parasite or virus in culture; format: functional; conditions: Mycobacterium tuberculosis
A-375 = assay: MITF: Counter assay: A375 proliferation Measured in Cell-Based System Using Plate Reader - 2084-03_Inhibitor_Dose_DryPowder_Activity. [Related pubchem assays (depositor defined):AID488944]; format: functional; conditions: Homo sapiens
[4] = target: T2, Microphthalmia-associated transcription factor (Homo sapiens, UniProt O75030); assay: reducers of TRPM1 reporter luminescence, concentration series – cell-based, SK-MEL-5, cherry-picked, set 3, MITF inhibitor project, dose response (AID 493073); format: functional;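 also: SK-MEL-5 melanoma cells with luciferase driven by the MITF target TRPM1 promoter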
T2 sequence (O75030 whole entry): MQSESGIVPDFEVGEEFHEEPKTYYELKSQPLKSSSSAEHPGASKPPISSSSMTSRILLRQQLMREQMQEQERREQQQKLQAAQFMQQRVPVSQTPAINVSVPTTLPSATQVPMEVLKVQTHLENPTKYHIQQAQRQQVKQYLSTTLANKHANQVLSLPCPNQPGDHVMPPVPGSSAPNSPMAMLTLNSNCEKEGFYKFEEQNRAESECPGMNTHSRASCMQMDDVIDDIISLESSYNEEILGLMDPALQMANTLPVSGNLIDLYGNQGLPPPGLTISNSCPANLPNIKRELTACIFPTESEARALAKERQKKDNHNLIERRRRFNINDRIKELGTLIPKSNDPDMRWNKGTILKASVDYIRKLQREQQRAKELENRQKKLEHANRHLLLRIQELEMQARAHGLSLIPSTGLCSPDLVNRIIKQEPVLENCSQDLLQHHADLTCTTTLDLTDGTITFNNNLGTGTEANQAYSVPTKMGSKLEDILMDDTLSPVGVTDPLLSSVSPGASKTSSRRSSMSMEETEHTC

[5] = target: T3, Histone-lysine N-methyltransferase NSD2 (Homo sapiens, UniProt O96028); format: biochemical
T3 sequence (O96028 whole entry): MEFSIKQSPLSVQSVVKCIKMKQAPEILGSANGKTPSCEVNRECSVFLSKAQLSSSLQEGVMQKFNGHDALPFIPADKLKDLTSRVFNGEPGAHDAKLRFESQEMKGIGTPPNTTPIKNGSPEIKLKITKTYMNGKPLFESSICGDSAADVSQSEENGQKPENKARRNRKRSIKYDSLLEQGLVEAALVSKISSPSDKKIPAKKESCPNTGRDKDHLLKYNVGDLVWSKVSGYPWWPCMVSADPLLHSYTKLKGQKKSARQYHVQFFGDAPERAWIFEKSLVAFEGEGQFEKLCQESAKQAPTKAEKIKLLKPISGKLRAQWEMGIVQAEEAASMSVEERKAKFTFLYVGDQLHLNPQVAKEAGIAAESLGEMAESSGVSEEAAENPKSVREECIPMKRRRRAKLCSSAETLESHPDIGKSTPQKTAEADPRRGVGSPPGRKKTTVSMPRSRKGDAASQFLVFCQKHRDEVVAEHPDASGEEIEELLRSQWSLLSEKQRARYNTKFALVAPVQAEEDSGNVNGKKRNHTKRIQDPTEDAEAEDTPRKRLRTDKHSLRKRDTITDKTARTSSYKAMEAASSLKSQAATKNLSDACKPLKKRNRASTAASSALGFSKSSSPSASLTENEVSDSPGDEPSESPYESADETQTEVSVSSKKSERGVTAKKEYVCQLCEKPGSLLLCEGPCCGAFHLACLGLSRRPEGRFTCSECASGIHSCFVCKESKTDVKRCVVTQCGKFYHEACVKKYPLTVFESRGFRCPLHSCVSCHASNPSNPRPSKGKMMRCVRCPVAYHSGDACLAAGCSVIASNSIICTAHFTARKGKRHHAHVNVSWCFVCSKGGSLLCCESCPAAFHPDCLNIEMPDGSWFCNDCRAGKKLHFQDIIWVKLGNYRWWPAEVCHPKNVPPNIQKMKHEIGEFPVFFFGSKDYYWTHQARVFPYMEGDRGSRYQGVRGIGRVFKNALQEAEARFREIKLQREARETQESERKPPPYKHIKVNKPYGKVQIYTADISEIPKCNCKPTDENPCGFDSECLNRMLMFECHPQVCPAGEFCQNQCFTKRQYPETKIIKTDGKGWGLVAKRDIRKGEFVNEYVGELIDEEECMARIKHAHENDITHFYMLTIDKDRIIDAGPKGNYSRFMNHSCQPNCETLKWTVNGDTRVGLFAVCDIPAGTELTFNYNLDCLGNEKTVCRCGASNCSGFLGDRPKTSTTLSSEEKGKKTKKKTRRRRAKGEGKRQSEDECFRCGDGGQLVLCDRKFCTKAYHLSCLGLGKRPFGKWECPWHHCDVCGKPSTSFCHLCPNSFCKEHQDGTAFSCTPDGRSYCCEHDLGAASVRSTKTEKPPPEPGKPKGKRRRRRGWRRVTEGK

Sequence of Procathepsin L (P07711 whole entry): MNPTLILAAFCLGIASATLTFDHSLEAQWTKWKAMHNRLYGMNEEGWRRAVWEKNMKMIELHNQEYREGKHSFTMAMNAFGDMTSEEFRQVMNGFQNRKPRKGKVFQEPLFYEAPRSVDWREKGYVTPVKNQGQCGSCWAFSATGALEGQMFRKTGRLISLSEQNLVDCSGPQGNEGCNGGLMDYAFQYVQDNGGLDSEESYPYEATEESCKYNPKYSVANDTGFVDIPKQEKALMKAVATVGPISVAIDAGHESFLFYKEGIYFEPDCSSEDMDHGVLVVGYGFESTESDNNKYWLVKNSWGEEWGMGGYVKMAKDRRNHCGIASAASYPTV
Sequence of Aspartyl aminopeptidase (Q8I2J3 whole entry): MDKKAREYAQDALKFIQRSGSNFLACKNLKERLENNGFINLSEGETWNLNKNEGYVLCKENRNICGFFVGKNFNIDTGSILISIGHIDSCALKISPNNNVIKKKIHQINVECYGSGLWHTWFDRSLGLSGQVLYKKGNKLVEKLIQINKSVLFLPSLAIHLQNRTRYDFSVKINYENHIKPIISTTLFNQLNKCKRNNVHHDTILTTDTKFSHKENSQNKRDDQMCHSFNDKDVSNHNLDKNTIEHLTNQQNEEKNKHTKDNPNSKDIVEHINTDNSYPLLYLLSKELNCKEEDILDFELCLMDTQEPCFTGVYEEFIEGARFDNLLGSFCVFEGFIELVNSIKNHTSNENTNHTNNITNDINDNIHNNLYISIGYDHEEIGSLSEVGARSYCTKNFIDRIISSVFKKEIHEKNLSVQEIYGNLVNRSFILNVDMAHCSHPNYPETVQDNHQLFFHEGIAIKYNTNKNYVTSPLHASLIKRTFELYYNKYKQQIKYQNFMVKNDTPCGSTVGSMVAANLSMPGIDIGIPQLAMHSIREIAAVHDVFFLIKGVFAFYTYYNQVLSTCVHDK

**Q.** For `COc1ccc2nc(SCC(=O)Nc3cc(OC)c(OC)cc3C(=O)O)c(C)cc2c1`, which IC50 (Aspartyl aminopeptidase) is on record?
**A.** Its IC50 is > 73.5 µM (not active).

**Q.** What about the IC50 (Leucine aminopeptidase) of the same molecule?
**A.** The IC50 was < 1 µM (active).

**Q.** And the IC50 (Procathepsin L)?
**A.** The IC50 was > 59.6 µM (not active).

**Q.** And the AC50 (Escherichia coli)?
**A.** Its AC50 is 27.6 µM (active).

**Q.** With `CCOc1ccc(-c2nc(CS(=O)(=O)CC(=O)NCc3ccc(F)cc3)c(C)o2)cc1` as the molecule, how does the IC50 (HEK293 [1]) read?
**A.** Its IC50 is > 80 µM (inactive).

**Q.** And the IC50 (HEK293 [2])?
**A.** The IC50 was > 80 µM (inactive).

**Q.** And the IC50 (Jurkat)?
**A.** Its IC50 is > 79 µM (inactive).

**Q.** Which results are given for `CC1C/C(=C\c2cccnc2)C(=O)/C(=C/c2cccnc2)C1` (stereo unspecified)?
**A.** CC50 [3]: 15.3 µM (active); AC50 (A-375): 21.5 µM (active); AC50 [4]: 2.66 µM (active); AC50 [5]: 19 µM (active)

Reference: ChEMBL document CHEMBL1201862, “PubChem BioAssay data set” (2004)
